Read-outs that look alike come from different tables or passages of the source.
Experiments:
[1] = system: hair follicles of a pig; conditions: DHT 10 ng/mL; for Hair elongation quantity (control regarded as 100%): 6th day of organ culture, William's E medium
Description: As a pig skin, a skin obtained from a crossbred pig with white hair which has been bred as a pork pig in Japan was used. The pig skin was cut into an appropriate size, the extra fat was cut away, and the resulting skin was soaked in a Hibiten solution (5% Hibiten solution (Sumitomo Pharmaceuticals) was diluted to 5 to 20 times with water) for 5 to 10 minutes under sterile conditions for sterilization and then washed several times with D-PBS.
Then hair follicles were isolated from the treated pig skin using forceps and scalpel (FEATHER No. 10) under a stereo microscope and collected in a medium.
According to the procedures (1), hair follicles of a pig were obtained from the dorsal region, lateral region, abdominal region, inguinal region, buttocks and shoulder of the pig. The isolated hair follicles were placed in a 24-well culture plate to give one hair follicle per well.
Incubation was carried out at 37° C. for 6 days in an incubator containing 5% of CO2.
The medium was exchanged every two days or every three days, and a hair elongation quantity after 6 days incubation was measured and compared with that of control.
For the control, William's E medium not containing DHT was used, and a hair elongation quantity after the organ culture was regarded as 100%.
Incidentally, a hair elongation quantity was measured, regarding the date on which incubation was commenced as the 0th day, by taking stereo microscopic images with a CCD camera (pixera model No. PVC 100C) at the 0th day and the 6th day, and measuring the change of the length from the base of hairbulb to the tip of hair shaft based on the images.

[2] = system: hair follicles of a human; conditions: literature; cited from earlier work
[3] = system: hair follicles at the buttocks of a pig; assay: Organ culture of pig buttocks hair follicles in RPMI1640 medium (hair elongation); format: cell-based; conditions: TGF-β2 10 ng/mL, 8th day of organ culture in RPMI1640 medium
Description: The hair follicles were incubated at 37° C. for 8 days in an incubator containing 5% of CO2.

[4] = abdominal region hair follicles

C[C@]12CCC(=O)C[C@@H]1CC[C@@H]1[C@@H]2CC[C@]2(C)[C@@H](O)CC[C@@H]12 [DHT, 5α-dihydrotestosterone]
Growth of hair follicles, effect in words [1, 4]: suppressed
Hair elongation quantity (control regarded as 100%) [1, 4]: 75%
Hair elongation quantity (control regarded as 100%) ([1]; buttocks hair follicles): 102%
Growth of hair follicles, effect in words ([1]; dorsal region hair follicles): promoted
Hair elongation quantity (control regarded as 100%) ([1]; dorsal region hair follicles): 179%
Hair elongation quantity (control regarded as 100%) ([1]; inguinal region hair follicles): 102%
Hair elongation quantity (control regarded as 100%) ([1]; lateral region hair follicles): 108%
Hair elongation quantity (control regarded as 100%) ([1]; shoulder hair follicles): 99%

B1: TGF-β2: TGF-β2 (R & D Systems, Inc., item No. 102-B2-001/CF), confirmed to suppress hair growth in human hair follicle organ culture (protein, UniProt P61812 303-414, looked up)
Transforming growth factor …: ALDAAYCFRNVQDNCCLRPLYIDFKRDLGWKWIHEPKGYNANFCAGACPYLWSSDTQHSRVLSLYNTINPEASASPCCVSQDLEPLTILYYIGKTPKIEQLSNMIVKSCKCS
Effect on hair growth in organ culture [2]: confirmed to suppress hair growth
Hair elongation rate (%) when that of control is regarded as 100% [3]: 59%
